This note sets out measurements from PubChem BioAssay AID2305 (GlaxoSmithKline (GSK), 2010).

pIC50: −log10 of the molar value.

In the test the test system is P. falciparum 3D7 growth, pLDH absorbance. Briefly: P. falciparum 3D7 growth inhibition, dose response, strain 3D7 (AID 2305).

Usually pIC50 stands for the IC50 on a negative log10 scale, so that one unit is a factor of ten. Read a high pIC50 as a low IC50. In turn, `CC(C)c1sc(N2CCN(C)CC2)nc1C(=O)Nc1ccc(F)cc1C(F)(F)F` gave a pIC50 of 6.72.

As for `Cc1ccc(Nc2nc(-c3ccccn3)cs2)nc1`, the negative-log IC50 (pIC50) is 6.12.

`COc1ccccc1NC(=O)Nc1cccc(-c2cccc(-c3nc4c(C)cccc4[nH]3)c2)c1` gave a negative logarithm of the IC50 (pIC50) of 7.00.

Take `COc1ccc(-c2cccc(NC(=O)c3ccc(Cl)cc3)c2)cc1CN1CCNCC1`: the negative-log IC50 (pIC50) is 6.08.

As to `Cc1ccc(NC(=O)Nc2ccc(Br)cc2)cc1OCCN(C)C`, the pIC50 was 6.01.

On to `O=C(N[C@@H](Cc1ccccc1)C(=O)NCc1cccc2ccccc12)c1ccc(O)c(-c2ccc(Cl)c(Cl)c2)c1`, for which the pIC50 was 6.62.

The molecule `CN(C)CCCn1cc(C(=O)OC2C[C@H]3CC[C@@H](C2)N3C)c2cc(-c3ccccc3)ccc21` (some centres undefined) had a pIC50 of 6.08.

In turn, `Cc1ccc(/C=C/C(=O)NC2CCC(N3CCC(c4ccccc4C)CC3)CC2)cc1F` (centres undefined) had a pIC50 of 5.98.

Regarding `O=C(c1cc(-c2ccco2)[nH]n1)N1CCN(S(=O)(=O)c2ccc(Br)cc2)CC1`, the pIC50 was 6.30.

`Cc1[nH]c2cc(Cl)ccc2c1C1=CCN(CCCCC2(C)C(=O)Nc3ccccc32)CC1` (centres undefined) had a pIC50 of 6.48.

In the case of `O=C(/C=C/c1ccccc1O)N1CCC(CCN2CCC(c3c[nH]c4ccccc34)CC2)CC1`, the pIC50 was 5.87.

`Cc1ccc(C(C(=O)Nc2ccc(N3CCNCC3)c(Cl)c2)c2ccccc2)cc1` (centres undefined) had a negative-log IC50 (pIC50) of 6.08.

In turn, `C[C@@H]1CN(C(c2cccc(O)c2)c2cccc(C(=O)N(C)c3cccc(F)c3)c2)[C@@H](C)CN1C(c1cccc(O)c1)c1cccc(C(=O)N(C)c2cccc(F)c2)c1` (some centres undefined) showed a pIC50 of 6.04.

As to `O=C(Nc1ccc(-c2nc3ccccc3[nH]2)cc1)C1CCCN(CC2CC2)C1` (centres undefined), the negative-log IC50 (pIC50) was 6.02.

In turn, `CCn1cc(C=C2Oc3c(ccc(O)c3CN3CCCCC3)C2=O)c2ccccc21` showed a negative-log IC50 (pIC50) of 6.55.

With `CN1CCC(Oc2ccc(CN3CC[C@H](NC(=O)c4ccc(Cl)c(Cl)c4)C3)c3ccccc23)C1` (some centres undefined), the pIC50 is 6.06.

In turn, `O=C(Nc1ccsc1C(=O)NC1CCCCC1)c1ccc(F)cc1` had a pIC50 of 5.92.

As for `O=C(CNC1=NCCN1)Nc1ccc(NC(=O)Nc2ccc(NC(=O)CNC3=NCCN3)cc2)cc1`, the negative logarithm of the IC50 (pIC50) was 6.11.

Molecule `CC(C)(C)CC(C)(C)c1ccc(O)c(C(=O)Nc2cccc([N+](=O)[O-])c2)c1` had a pIC50 of 6.23.

The molecule `O=C(NC1CCN(CCN2CCC(c3ccccc3C(F)(F)F)CC2)CC1)c1ccc(-c2ccc(Cl)cc2)cc1` gave a negative-log IC50 (pIC50) of 6.15.

Consider `COc1ccc2c(Nc3ccc(N4CCN(C)CC4)cc3)cc(C)nc2c1`, for which the pIC50 was 6.14.

The molecule `COc1ccc(NC(=O)N2CCc3ccc(OCCN(C(C)C)C(C)C)cc32)cc1C(F)(F)F` had a negative logarithm of the IC50 (pIC50) of 6.01.

`CCOC(=O)C(C)(C)Oc1ccc(CN(Cc2ccc(CC(C)C)cc2)C(=O)Nc2ccc(F)cc2F)c(OC)c1` had a pIC50 of 6.62.

`COc1ccc(-c2cc(C(=O)Nc3ccc4nc(-c5ccccc5)[nH]c4c3)[nH]n2)cc1` gave a negative logarithm of the IC50 (pIC50) of 6.15.

On to `CN(C)Cc1ccc(-c2ccc3c(Nc4ccc(Cl)cc4F)ccnc3c2)o1`, for which the pIC50 is 6.62.

`CCN(CCCN1CCCCC1)c1cc(C)nc(Nc2ccc(F)c(C(F)(F)F)c2)n1` showed a negative logarithm of the IC50 (pIC50) of 6.82.

Take `CC(C)(CN1CCCC1)CN(Cc1ccc(-c2ccc(C(F)(F)F)cc2)cc1)C(=O)Cn1c(CCc2cccc(F)c2F)nc(=O)c2ccccc21`: the pIC50 was 6.10.

`CCNc1cc(C(=O)N[C@@H](Cc2ccccc2)[C@H](O)CNCc2cccc(-c3cncnc3)c2)cc(N2CCCC2=O)c1` showed a negative-log IC50 (pIC50) of 6.18.

`O=C(NCCc1ccc(Cl)c(Cl)c1)C1CCCN(C(=O)c2ccc(O)c(-c3ccc(Cl)c(Cl)c3)c2)C1` (centres undefined) showed a negative logarithm of the IC50 (pIC50) of 6.11.

`CCCc1cc(Cc2cnc(N)nc2N)cc(CCC)c1OCCCCC(=O)OC` gave a pIC50 of 7.40.

On to `COCCN1CCN(Cc2ccc(-c3cccc(-c4nc5ccccc5[nH]4)c3)cc2)CC1`, for which the pIC50 was 5.95.

Regarding `CCOc1cc(C(=O)NC2CC(C)(C)N(C)C(C)(C)C2)ccc1-c1nc2cc(Cl)c(Cl)cc2[nH]1`, the negative logarithm of the IC50 (pIC50) was 6.07.

With `COc1cc2c(cc1OC)CC(NCCCCCCNCCc1ccc(Cl)cc1)CC2` (centres undefined), the negative logarithm of the IC50 (pIC50) is 6.13.

With `COCCNCc1cccc(-c2cccc(CNC3CCN(Cc4ccccc4)CC3)c2)c1`, the negative logarithm of the IC50 (pIC50) is 6.55.

In turn, `COc1cc(OC)c(NC(=O)C2c3ccccc3C(=O)N(C)C2c2cccs2)cc1Cl` (centres undefined) showed a pIC50 of 6.12.

Molecule `CCCCNc1cc(NCCCC)c2c(n1)[nH]c1ccccc12` gave a pIC50 of 6.24.

Consider `Oc1ccc(CCNc2nc(NCc3ccccc3-c3ccc(C(F)(F)F)cc3)nc(NC3CCNCC3)n2)cc1`, for which the negative-log IC50 (pIC50) is 6.04.

In turn, `COCC(=O)N(Cc1ccccc1-c1ccc(CNCCc2ccccc2)cc1)C1CCN(Cc2ccccc2)CC1` showed a pIC50 of 6.05.

`CC(C)[C@@H]1c2ccc(O)cc2C[C@H]2C(=O)N(C3CCCCC3)C(=O)N21` gave a negative-log IC50 (pIC50) of 6.06.

`CC1CCCCC1N(C)C1CCN(CCCNC(=O)C=Cc2ccc(Cl)cc2Cl)CC1` (centres undefined): the negative logarithm of the IC50 (pIC50) was 6.19.

As for `OC(CNc1ccnc(Nc2ccc(Cl)cc2)n1)c1cccc(C(F)(F)F)c1` (centres undefined), the pIC50 is 6.17.

The molecule `CC(C)(C)c1ccc(N2C(N)=NC(N)=NC2(C)C)cc1Cl` showed a negative logarithm of the IC50 (pIC50) of 8.00.

In turn, `CC(Cc1ccc(SC(C)(C)C)cc1)NCC(O)c1cccc(Cl)c1` (centres undefined) gave a negative logarithm of the IC50 (pIC50) of 6.49.

`COc1ccc(CCNC(=O)c2cnc3c(c2)nc(-c2cnc(-c4ccccc4)[nH]2)n3CCc2cnc[nH]2)cc1` showed a pIC50 of 6.01.

Consider `CN(C)c1cccc2c1nc(-c1ccco1)n2CC1CCCN1` (centres undefined), for which the pIC50 was 6.01.

With `Fc1ccc2nc(-c3cccc(-c4cccc(CNCCc5ccncc5)c4)c3)[nH]c2c1`, the pIC50 was 6.77.

Consider `c1ccc(C(c2ccccc2)N2CCN(C(c3cccnc3)c3nnnn3C3CCCC3)CC2)cc1` (centres undefined), for which the pIC50 was 5.97.

In the case of `Nc1ncc(-c2ccsc2)c2ccc(-c3cc(NCc4ccccc4)ncn3)cc12`, the pIC50 is 6.07.

`NS(=O)(=O)c1cccc(N=Cc2c(O)[nH]c3ccc(S(=O)(=O)Cc4c(Cl)cccc4Cl)cc23)c1` showed a pIC50 of 6.14.

With `Cc1ccc(Nc2nc(C)cc(NCc3ccc(-n4ccnc4)cc3)n2)cc1`, the pIC50 was 6.00.

Molecule `O=C(/C=C/c1ccc(Cl)c(Cl)c1)NC1CCC(CN2CCC(c3cc4ccccc4[nH]3)CC2)CC1` (centres undefined) showed a pIC50 of 6.00.

In the case of `CC1CCN(Cc2cccc(C(=O)NCc3ccc(F)c(-c4cccc(CN5CCN[C@@H](C)C5)c4)c3)c2)CC1`, the pIC50 is 5.84.

Regarding `COc1ccc(Cl)cc1N1CCN(CCCNC(=O)c2ccc(-c3nc4ccncc4[nH]3)c(Br)c2)CC1`, the pIC50 was 5.94.

In turn, `Cc1ccc(CNC(=O)[C@H](CC(C)C)Nc2cc(C)nc(NCC3CCCCC3)n2)cc1` showed a negative logarithm of the IC50 (pIC50) of 6.03.

In turn, `CC(C)(C)c1ccc(NC(=O)c2ccc(CN3CCCN(Cc4cccc(F)c4)CC3)cc2)cc1` had a negative-log IC50 (pIC50) of 5.95.

Molecule `COc1ccc(-c2cccc(NC(=O)c3ccc(C#N)cc3)c2)cc1CN1CCCN(C)CC1` showed a pIC50 of 6.12.

`COc1ccccc1N1CCN(c2cccc3c2nc(-c2cncc(C#N)c2)n3CCNCc2ccccc2)CC1` gave a negative logarithm of the IC50 (pIC50) of 6.15.

In the case of `CN1CCN(CCCN(C(=O)Nc2cc(C(F)(F)F)cc(C(F)(F)F)c2)c2ccccc2Cc2ccccc2)CC1`, the negative-log IC50 (pIC50) is 5.95.

In turn, `Cc1[nH]c(C)c(-c2ccc(Cl)cc2)c(=O)c1I` showed a pIC50 of 6.17.

The molecule `O=C(Nc1cc(F)cc(F)c1)N1CCOC(CCN2CCC3(CCc4ccccc43)CC2)(c2ccc(Cl)c(Cl)c2)C1` (centres undefined) showed a pIC50 of 6.55.

`COc1cccc(C(=O)N2CCN(Cc3cccc(NC(=O)c4cccs4)c3)CC2)c1` had a pIC50 of 6.32.

Take `CCN(CC)CCCNc1nccc(N2CCc3ncnc(Nc4ccc(OCc5cccc(F)c5)c(Cl)c4)c3C2)n1`: the negative logarithm of the IC50 (pIC50) was 6.96.

As for `COc1cc2nc(NCC3CCCO3)n3nc(-c4ccccc4)nc3c2cc1OC` (centres undefined), the negative-log IC50 (pIC50) is 6.68.

As to `N=C(N)c1ccc(NN=Cc2ccc(Oc3ccc(C(=N)N)cc3)cc2)cc1`, the pIC50 is 7.05.

For the molecule `O=C(Nc1ccc(OC2CCN(Cc3ccccc3)CC2)c(Cl)c1)c1ccsc1`, the negative-log IC50 (pIC50) is 6.05.

Regarding `CC(Cc1ccc(OCCCCOc2ccccc2)cc1)NCCCn1ccnc1` (centres undefined), the pIC50 is 6.77.

In turn, `O=C(N[C@H]1CCN(Cc2ccc(OCCN3CCNCC3)c(Br)c2)C1)c1ccc(Cl)c(Cl)c1` showed a negative logarithm of the IC50 (pIC50) of 6.32.

Molecule `CC(C)(CNC(=O)C1CCN(CCOCc2ccccc2)CC1)c1nc(-c2ccc(Cl)c(O)c2)c(-c2ccncc2)[nH]1` gave a negative-log IC50 (pIC50) of 6.21.

Molecule `CN(C)Cc1cccc(-c2ccc(NC(=O)c3ccc4c(=O)n(C5CCCCC5)cnc4c3)cc2)c1` gave a pIC50 of 6.13.

In the case of `CCN1CCC(NCc2ccc(-c3ccc(Cl)s3)cc2)CC1`, the negative-log IC50 (pIC50) is 6.03.

The molecule `CNc1cc(-c2ccc3ccnc(N)c3c2)nc(N)n1` showed a pIC50 of 6.92.

`O=C(NC1CCC(CCN2Cc3cccc(C(F)(F)F)c3C2)CC1)c1cccc(-c2cccnc2)c1` (centres undefined) showed a negative logarithm of the IC50 (pIC50) of 5.99.

`COc1cccc(NC(=O)c2ccc(NCCCN3CC(C)CC(C)C3)c([N+](=O)[O-])c2)c1` (centres undefined) showed a pIC50 of 6.14.

With `COc1ccccc1N1CCN(c2cccc(F)c2C#N)CC1`, the negative logarithm of the IC50 (pIC50) is 6.02.

In turn, `CC[C@H]1CN2CC[C@H]1C[C@H]2[C@H](O)c1cc(/C=C/c2ccc(F)cc2)nc2ccc(OC)cc12` showed a pIC50 of 7.52.

Molecule `O=C(NCCCCN1CCC(c2ccc3ccccc3c2)CC1)c1ccc(NC(=O)c2ccc(Cl)cc2)cc1` showed a negative-log IC50 (pIC50) of 6.64.

For `CCN(CC)CCN(Cc1ccc(-c2ccc(C(F)(F)F)cc2)cc1)C(=O)Cn1c(CCc2ccc(F)c(F)c2)nc(=O)c2ccccc21`, the pIC50 is 5.80.

For the molecule `Cc1cc(F)ccc1-c1nc(NCCCNCCc2ccccc2)nc2c1ccc(=O)n2-c1c(F)cccc1F`, the pIC50 is 6.72.

The molecule `CN1CCCC1CCNc1ncc2c(-c3ccc(NC(=O)Nc4cc(C(F)(F)F)ccc4F)cc3)nn(C)c2n1` (centres undefined) gave a pIC50 of 6.47.

In the case of `CS(=O)(=O)N1CC2(CCN(CCC(NC(=O)NCc3ccccc3Cl)c3ccc(Cl)c(Cl)c3)CC2)c2ccccc21` (centres undefined), the pIC50 was 5.95.

Molecule `NC(N)=Nc1nc(-c2cccc(NC(=O)NCCc3c[nH]c4ccc(OCc5ccccc5)cc34)c2)cs1` showed a pIC50 of 6.09.

Consider `CCc1c(C(=O)NC2CCC(N3CCC(c4ccccc4C)CC3)CC2)[nH]c2ccc(OC)cc12` (centres undefined), for which the pIC50 was 6.09.

In the case of `O=C(NCCCNc1ccnc2cc(Cl)ccc12)c1ccccc1F`, the negative-log IC50 (pIC50) was 6.49.

In turn, `CC(=O)Nc1ccc(-c2nc3ccc(-c4nc5ccc(NC(C)=O)cc5[nH]4)cc3[nH]2)cc1` showed a negative logarithm of the IC50 (pIC50) of 6.62.
